Measured values: US20170190671A1, “BIS(ARYL)CATECHOL DERIVATIVES AS HERBICIDES” (E I DU PONT DE NEMOURS AND COMPANY, priority 2014, published 2017)

Columns and labels:
Assay in all cases: Test E preemergence
Type in all cases: in vivo
Details in all cases: scale 0 to 100
[1] = tested on: Brazilian crabgrass (Digitaria horizontalis)
Description: (§1) Seeds of plant species selected from corn (Zea mays), soybean (Glycine max), velvetleaf (Abutilon theophrasti), cocklebur (common cocklebur, Xanthium strumarium), lambsquarters (Chenopodium album), wild poinsettia (Euphorbia heterophylla), palmer pigweed (Amaranthus palmeri), waterhemp (common waterhemp, Amaranthus rudis), surinam grass (Brachiaria decumbens), large (Lg) crabgrass (Digitaria sanguinalis), Brazilian crabgrass (Digitaria horizontalis), fall panicum (Panicum dichotomiflorum), giant foxtail (Setaria faberii), green foxtail (Setaria viridis), goosegrass (Eleusine indica), johnsongrass (Sorghum halepense), ragweed (common ragweed, Ambrosia elatior), barnyardgrass (Echinochloa crus-galli), sandbur (southern sandbur, Cenchrus echinatus), arrowleaf sida (Sida rhombifolia), Italian ryegrass (Lolium multiflorum), dayflower (Virginia (VA) dayflower, Commelina virginica), field bindweed (Convolvulus arvensis), morningglory (Ipomoea coccinea), nightshade (eastern black nightshade, Solanum ptycanthum), kochia (Kochia scoparia), yellow nutsedge (Cyperus esculentus), horseweed (Conyza canadensis), and hairy beggarticks (Bidens pilosa), were planted into a silt loam soil and treated preemergence with test chemicals formulated in a non-phytotoxic solvent mixture which included a surfactant.
(§2) At the same time, plants from these crop and weed species and also waterhemp_RES1, (ALS & Triazine resistant common waterhemp, Amaranthus rudis), and waterhemp_RES2, (ALS & HPPD resistant common waterhemp, Amaranthus rudis) were planted in pots containing Redi-Earth® planting medium (Scotts Company, 14111 Scottslawn Road, Marysville, Ohio 43041) comprising spaghnum peat moss, vermiculite, wetting agent and starter nutrients were treated with postemergence applications of test chemicals formulated in the same manner. Plants ranged in height from 2 to 18 cm for postemergence treatments (1- to 4-leaf stage). Treated plants and controls were maintained in a greenhouse for 14 to 21 days, after which time all species were compared to controls and visually evaluated. Plant response ratings, summarized in Table E, are based on a scale of 0 to 100 where 0 is no effect and 100 is complete control. A dash (-) response means no test result.

[2] = tested on: Italian ryegrass (Lolium multiflorum)
Description: as §1, §2

[3] = tested on: Surinam grass (Brachiaria decumbens)
Description: as §1, §2

[4] = tested on: arrowleaf sida (Sida rhombifolia)
Description: as §1, §2

[5] = tested on: barnyardgrass (Echinochloa crus-galli)
Description: as §1, §2

[6] = tested on: fall panicum (Panicum dichotomiflorum)
Description: as §1, §2

[7] = tested on: giant foxtail (Setaria faberii)
Description: as §1, §2

[8] = tested on: goosegrass (Eleusine indica)
Description: as §1, §2

[9] = tested on: green foxtail (Setaria viridis)
Description: as §1, §2

[10] = tested on: hairy beggarticks (Bidens pilosa)
Description: as §1, §2

kochia (Kochia scoparia) = tested on: kochia (Kochia scoparia)
Description: as §1, §2

[11] = tested on: lambsquarters (Chenopodium album)
Description: as §1, §2

[12] = tested on: large (Lg) crabgrass (Digitaria sanguinalis)
Description: as §1, §2

[13] = tested on: nightshade (eastern black nightshade, Solanum ptycanthum)
Description: as §1, §2

[14] = tested on: palmer pigweed (Amaranthus palmeri)
Description: as §1, §2

[15] = tested on: ragweed (common ragweed, Ambrosia elatior)
Description: as §1, §2

[16] = tested on: sandbur (southern sandbur, Cenchrus echinatus)
Description: as §1, §2

soybean (Glycine max) = tested on: soybean (Glycine max)
Description: as §1, §2

[17] = tested on: velvetleaf (Abutilon theophrasti)
Description: as §1, §2

[18] = tested on: waterhemp (common waterhemp, Amaranthus rudis)
Description: as §1, §2

[19] = tested on: yellow nutsedge (Cyperus esculentus)
Description: as §1, §2

## Clc1cnc(Oc2cccc(Br)c2Oc2ncc(Cl)cn2)nc1 [Compound 19, 2,2′-[[3-bromo-1,2-phenylene]bis(oxy)]bis[5-chloropyrimidine]]
[1]; 16 g ai/ha
  Plant response rating, Crabgrass, Brazil: 0
[1]; 31 g ai/ha
  Plant response rating, Crabgrass, Brazil: 40
[1]; 62 g ai/ha
  Plant response rating, Crabgrass, Brazil: 100
[1]; 125 g ai/ha
  Plant response rating, Crabgrass, Brazil: 100
[2]; 16 g ai/ha
  Plant response rating, Ryegrass, Italian: 0
[2]; 31 g ai/ha
  Plant response rating, Ryegrass, Italian: 0
[2]; 62 g ai/ha
  Plant response rating, Ryegrass, Italian: 65
[2]; 125 g ai/ha
  Plant response rating, Ryegrass, Italian: 70
[3]; 16 g ai/ha
  Plant response rating, Surinam Grass: 0
[3]; 31 g ai/ha
  Plant response rating, Surinam Grass: 0
[3]; 62 g ai/ha
  Plant response rating, Surinam Grass: 10
[3]; 125 g ai/ha
  Plant response rating, Surinam Grass: 10
[4]; 16 g ai/ha
  Plant response rating, Arrowleaf Sida: 65
[4]; 31 g ai/ha
  Plant response rating, Arrowleaf Sida: 40
[4]; 62 g ai/ha
  Plant response rating, Arrowleaf Sida: 100
[4]; 125 g ai/ha
  Plant response rating, Arrowleaf Sida: 100
[5]; 16 g ai/ha
  Plant response rating, Barnyardgrass: 0
[5]; 31 g ai/ha
  Plant response rating, Barnyardgrass: 0
[5]; 62 g ai/ha
  Plant response rating, Barnyardgrass: 20
[5]; 125 g ai/ha
  Plant response rating, Barnyardgrass: 70
[6]; 16 g ai/ha
  Plant response rating, Panicum, Fall: 100
[6]; 31 g ai/ha
  Plant response rating, Panicum, Fall: 85
[6]; 62 g ai/ha
  Plant response rating, Panicum, Fall: 98
[6]; 125 g ai/ha
  Plant response rating, Panicum, Fall: 100
[7]; 16 g ai/ha
  Plant response rating, Foxtail, Giant: 0
[7]; 31 g ai/ha
  Plant response rating, Foxtail, Giant: 95
[7]; 62 g ai/ha
  Plant response rating, Foxtail, Giant: 100
[7]; 125 g ai/ha
  Plant response rating, Foxtail, Giant: 100
[8]; 16 g ai/ha
  Plant response rating, Goosegrass: 5
[8]; 31 g ai/ha
  Plant response rating, Goosegrass: 75
[8]; 62 g ai/ha
  Plant response rating, Goosegrass: 90
[8]; 125 g ai/ha
  Plant response rating, Goosegrass: 98
[9]; 16 g ai/ha
  Plant response rating, Foxtail, Green: 0
[9]; 31 g ai/ha
  Plant response rating, Foxtail, Green: 60
[9]; 62 g ai/ha
  Plant response rating, Foxtail, Green: 98
[9]; 125 g ai/ha
  Plant response rating, Foxtail, Green: 100
[10]; 16 g ai/ha
  Plant response rating, Beggarticks: 0
[10]; 31 g ai/ha
  Plant response rating, Beggarticks: 0
[10]; 62 g ai/ha
  Plant response rating, Beggarticks: 0
[10]; 125 g ai/ha
  Plant response rating, Beggarticks: 0
Kochia (Kochia scoparia); 16 g ai/ha
  Plant response rating, Kochia: 35
Kochia (Kochia scoparia); 31 g ai/ha
  Plant response rating, Kochia: 75
Kochia (Kochia scoparia); 62 g ai/ha
  Plant response rating, Kochia: 98
Kochia (Kochia scoparia); 125 g ai/ha
  Plant response rating, Kochia: 100
[11]; 16 g ai/ha
  Plant response rating, Lambsquarters: 60
[11]; 31 g ai/ha
  Plant response rating, Lambsquarters: 100
[11]; 62 g ai/ha
  Plant response rating, Lambsquarters: 100
[11]; 125 g ai/ha
  Plant response rating, Lambsquarters: 100
[12]; 16 g ai/ha
  Plant response rating, Crabgrass, Large: 20
[12]; 31 g ai/ha
  Plant response rating, Crabgrass, Large: 80
[12]; 62 g ai/ha
  Plant response rating, Crabgrass, Large: 100
[12]; 125 g ai/ha
  Plant response rating, Crabgrass, Large: 100
[13]; 16 g ai/ha
  Plant response rating, Nightshade: 0
[13]; 31 g ai/ha
  Plant response rating, Nightshade: 0
[13]; 62 g ai/ha
  Plant response rating, Nightshade: 65
[13]; 125 g ai/ha
  Plant response rating, Nightshade: 98
[14]; 16 g ai/ha
  Plant response rating, Pigweed, Palmer: 0
[14]; 31 g ai/ha
  Plant response rating, Pigweed, Palmer: 70
[14]; 62 g ai/ha
  Plant response rating, Pigweed, Palmer: 100
[14]; 125 g ai/ha
  Plant response rating, Pigweed, Palmer: 100
[15]; 16 g ai/ha
  Plant response rating, Ragweed: 0
[15]; 31 g ai/ha
  Plant response rating, Ragweed: 0
[15]; 62 g ai/ha
  Plant response rating, Ragweed: 10
[15]; 125 g ai/ha
  Plant response rating, Ragweed: 50
[16]; 16 g ai/ha
  Plant response rating, Sandbur: 0
[16]; 31 g ai/ha
  Plant response rating, Sandbur: 0
[16]; 62 g ai/ha
  Plant response rating, Sandbur: 0
[16]; 125 g ai/ha
  Plant response rating, Sandbur: 20
Soybean (Glycine max); 16 g ai/ha
  Plant response rating, Soybean: 0
Soybean (Glycine max); 31 g ai/ha
  Plant response rating, Soybean: 0
Soybean (Glycine max); 62 g ai/ha
  Plant response rating, Soybean: 0
Soybean (Glycine max); 125 g ai/ha
  Plant response rating, Soybean: 50
[17]; 16 g ai/ha
  Plant response rating, Velvetleaf: 0
[17]; 31 g ai/ha
  Plant response rating, Velvetleaf: 0
[17]; 62 g ai/ha
  Plant response rating, Velvetleaf: 50
[17]; 125 g ai/ha
  Plant response rating, Velvetleaf: 100
[18]; 16 g ai/ha
  Plant response rating, Waterhemp: 65
[18]; 31 g ai/ha
  Plant response rating, Waterhemp: 65
[18]; 62 g ai/ha
  Plant response rating, Waterhemp: 100
[18]; 125 g ai/ha
  Plant response rating, Waterhemp: 100
[19]; 16 g ai/ha
  Plant response rating, Nutsedge, Yellow: 0
[19]; 31 g ai/ha
  Plant response rating, Nutsedge, Yellow: 0
[19]; 62 g ai/ha
  Plant response rating, Nutsedge, Yellow: 0
[19]; 125 g ai/ha
  Plant response rating, Nutsedge, Yellow: 20
